Here are results for two compounds from patent US12509425B2, “Tablet comprising modoflaner as an active component” (VIRBAC, priority 2020, dated 2025).

The term Tmax denotes the time at which the peak concentration occurs.

The data set can be described thus: Bioavailability study: Modoflaner plasma concentration in dogs after oral gel capsule. Type of data set: in vivo. The settings on record: oral gelatin capsule, same dosage per kg body weight, 5 dogs per group. The method, then:
The highest plasma concentration measured was set to 1 and the other plasma concentrations are given relatively to this highest value.
Ten dogs, divided into two groups comprising five animals each, were orally treated with a gel capsule containing either modification I or IV of Modoflaner at the same dosage of Modoflaner per kg body weight.
For kinetic evaluation, blood was sampled at predetermined time points (0, 0.5, 1, 2, 4, 6, 8, 24, 32, 48, 72 and 144 hours) before and after treatment (n=12 per dog). All samples were deep-frozen immediately after plasma preparation and stored at −18° C. or below until shipment to the analytical laboratory.
The samples were analyzed with regard to their concentration in Modoflaner.
The plasma samples were deproteinized by mixing 100 μL plasma with 900 μL of a mixture of 100 mL of 0.40 g ammonium acetate in 1 L water plus 100 μL formic acid and 600 mL acetonitrile, treatment for 30 s on a vortex mixer and subsequent centrifugation. The quantitative determination was performed by HPLC (Column ZORBAX Eclipse Plus C18 Rapid Resolution HD, 2.1×50 mm, 1.8 μm Agilent Technologies; Isocratic pump: Mobile phase: Solution of methanol/water (7+3, v/v)+10 mMol ammonium formate+0.12 mL/L formic acid Flow rate: 0.5 mL/min; Binary pump: Mobile phase A: water+10 mMol ammonium formate+0.12 mL/L formic acid Mobile phase B: methanol+10 mMol ammonium formate+0.12 mL/L formic acid Flow rate: 0.6 mL/min) with detection by tandem mass spectrometry using a Sciex API 5500 mass spectrometer (negative ionisation mode using the transition from Modoflaner precursor ion at m/z 714 to its product ion at m/z 694). The lower limit of quantitation was 1 μg/L.
For calculation of the mean values, results below the limit of quantitation were set to half the limit of quantitation.

Consider `O=C(Nc1cccc(C(=O)Nc2c(I)cc(C(F)(C(F)(F)F)C(F)(F)F)cc2C(F)(F)F)c1F)c1ccc(F)nc1` [6-fluoro-N-(3-(2-iodo-4-(perfluoropropan-2-yl)-6-(trifluoromethyl)phenylcarbamoyl)-2-fluoro-phenyl)-nicotinamide], for which the “Cmax relative to Cmax of crystalline modification I” value is recorded as “about 3 times”. Further, the time to peak (Tmax) (listed as modification IV) is given as 4 h.

For the compound `O=C(Nc1cccc(C(=O)Nc2c(I)cc(C(F)(C(F)(F)F)C(F)(F)F)cc2C(F)(F)F)c1F)c1ccc(F)nc1` [crystalline modification I of Modoflaner, 6-fluoro-N-(3-(2-iodo-4-(perfluoropropan-2-yl)-6-(trifluoromethyl)phenylcarbamoyl)-2-fluoro-phenyl)-nicotinamide], the Tmax is 32 h.
